Data from ChEMBL document CHEMBL1150488 (1993).

Columns and labels:
Assay type in all cases: functional
[1] = test system: Staphylococcus epidermidis; assay: Tested for zone of inhibition against Staphylococcus epidermidis UC719 (1 mg/mL, 80 microL/6.5 mm)
Staphylococcus aureus [2] = assay: Tested for zone of inhibition against Staphylococcus aureus UC6685 (1 mg/mL, 80 microL/6.5 mm)
Bacteroides fragilis = assay: Tested for zone of inhibition against Bacteroides fragilis UC6513 (1 mg/mL, 80 microL/12.7 mm)
Clostridium perfringens [3] = assay: The compound (1 mg/mL, 80 microL/12.7 mm) was tested for zone of inhibition against Clostridium perfringens UC6509 (22H -, H: Hazy zone)
Staphylococcus aureus [4] = assay: Tested for zone of inhibition against Staphylococcus aureus UC3665 (1 mg/mL, 80 microL/12.7 mm)
Staphylococcus aureus [5] = assay: The compound (1 mg/mL, 80 microL/6.5 mm) was tested for zone of inhibition against Staphylococcus aureus UC6685 (38H -, H: Hazy zone)
Clostridium perfringens [6] = assay: Tested for zone of inhibition against Clostridium perfringens UC6509

`CC(=O)OC/C(C)=C1\CN(C(C)=O)C1=O` was tested, and the Diameter of inhibition zone [1] was 0 mm, the Diameter of inhibition zone (Staphylococcus aureus [2]) was 0 mm and the Diameter of inhibition zone (Bacteroides fragilis) was 22 mm. It also gave a Diameter of inhibition zone (Clostridium perfringens [3]) of 22 mm and a Diameter of inhibition zone (Staphylococcus aureus [4]) of 0 mm.

`CCCCCC(=O)N1C[C@H]([C@H](C)CF)C1=O` showed a Diameter of inhibition zone (Staphylococcus aureus [5]) of 38 mm, a Diameter of inhibition zone [1] of 31 mm and a Diameter of inhibition zone (Clostridium perfringens [6]) of 79 mm. The Diameter of inhibition zone (Staphylococcus aureus [4]) was 48 mm.
